Assay results from US20100028266A1, “Composition and methods for treating allergic response” (Alpha Synergy Development. Inc., priority 2008, published 2010).

Key:
[1] = system: eyes of a patient with an ocular condition of moderate hyperemia; test: FIGS. 5A-C: reversal of pre-induced rebound hyperemia; type: in vivo, human; conditions: brimonidine at […] given after VISINE Original
From the text: FIG. 5A is a baseline visual appearance of two eyes of a patient with an ocular condition.

[2] = system: eyes of a patient with an ocular condition (baseline redness 4/4); conditions: brimonidine at 0.01%, 0.02%, […] (left eye) compared with tetrahydrozoline 0.05%, oxymetazoline […], naphazoline […] (right eye)
From the text: In an average clinical situation, baseline redness is at 1-1.5/4.

[3] = system: patients with chronic red eyes; test: Example 5: chronic red eyes, one eye each treatment, patient satisfaction assessment; type: in vivo, human
Procedure: The treatment was through drops twice a day for three to five weeks. At the end, patient satisfaction assessment was conducted.

Structure (SMILES): Brc1c(N=C2NCCN2)ccc2nccnc12.O=C(O)C(O)C(O)C(=O)O [brimonidine, 5-bromo-6-(2-imidazolidinylideneamino)quinoxaline L-tartrate]
- effect on VISINE Original induced rebound hyperemia, right eye [1]: reversing the VISINE Original® induced rebound hyperemia
- scleral whitening brightening effects [2]: significant scleral whitening brightening effects
- patients who preferred the treatment ([3]; brimonidine at […] in one eye, Naphcon-A in the other, twice a day for three to five weeks): 42%
- patient-reported redness ([3]; brimonidine at […], drops twice a day for three to five weeks): All patients reported reduced redness
